Assay results reported in patent publication US20230278972A1, “SUBSTITUTED HALOALKYL SULFONANILIDE HERBICIDES” (FMC Corporation, priority 2020, published 2023).

Columns and labels:
Assay type in all cases: in vivo
[1] = tested on: blackgrass (Alopecurus myosuroides); assay: Test A1 preemergence, blackgrass
Outline: (§1)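 Test compounds were formulated in a non-phytotoxic solvent mixture containing a surfactant. For preemergence, seeds sown in a loam soil–sand blend received a directed soil spray. For postemergence, potted plants in the same soil, 2 to 10 cm tall at the one- to two-leaf stage, were sprayed.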

[2] = tested on: Foxtail, Giant (giant foxtail, Setaria faberi); assay: Test A1 postemergence, Foxtail, Giant; conditions: Postemergence
Outline: as §1

soybean (Glycine max) = assay: Test A1 postemergence, soybean; conditions: Postemergence
Outline: as §1

[3] = tested on: wheat (Triticum aestivum); assay: Test A1 preemergence, wheat
Outline: as §1

[4] = tested on: wheat (Triticum aestivum); assay: Test A1 postemergence, wheat; conditions: Postemergence
Outline: as §1

rice (Oryza sativa) = assay: Test B1 flooded paddy test, rice; conditions: 250 g ai/ha, Flood, applied to paddy water, 2-leaf stage, visually evaluated after 10 to 14 days
Description: A dash (-) response means no test result.

corn (Zea mays) = assay: Test A1 preemergence, corn
Outline: as §1

[5] = 31 g ai/ha, 0 to 100 scale (0 no effect, 100 complete control)
[6] = 125 g ai/ha, 0 to 100 scale, 0 no effect, 100 complete control
[7] = 31 g ai/ha, 0 to 100 scale (0 no effect, 100 complete control), 10 days

| Compound | Plant response rating, Blackgrass [1, 5] | Plant response rating, Blackgrass [1, 6] | Plant response rating, Foxtail, Giant [2, 7] | Plant response rating, Foxtail, Giant ([2]; 125 g ai/ha, 0 to 100 scale) | Plant response rating, Soybean (soybean (Glycine max); [7]) | Plant response rating, Soybean (soybean (Glycine max); 125 g ai/ha, 0 to 100 scale) | Plant response rating, Wheat [3, 5] | Plant response rating, Wheat [3, 6] | Plant response rating, Wheat [4, 7] | Plant response rating, Wheat ([4]; 125 g ai/ha, 0 to 100 scale) | Plant response rating, Rice (0 to 100 scale, 0 is no effect, 100 is complete control) (rice (Oryza sativa)) | Plant response rating, Corn (corn (Zea mays); [5]) | Plant response rating, Corn (corn (Zea mays); [6]) |
| --- | --- | --- | --- | --- | --- | --- | --- | --- | --- | --- | --- | --- | --- |
| Cc1cc(C)c(N(COC(=O)C(C)(C)C)S(=O)(=O)C(F)(F)F)cc1C(=O)N1CCC(c2ccccc2)CC1 [Compound 364] | 0 | 0 | 0 | 20 | 0 | 10 | 0 | 0 | 0 | 0 | 0 | 0 | 0 |
| Cc1c(NS(=O)(=O)C(F)(F)F)cc(C(=O)N2CCC(F)(F)CC2)c(C)c1C [Compound 357] | 0 | 10 | 0 | 20 | 40 | 90 | 0 | 10 | 0 | 0 | 10 | 10 | 90 |
| COc1cc(C)c(NS(=O)(=O)C(F)(F)F)cc1C1=NOC2CCCC12 (stereo not drawn) [Compound 312] | 0 | 0 | 0 | 10 | 20 | 20 | 0 | 0 | 0 | 0 | 0 | 0 | 10 |
| Cc1c(C(=O)N2CCC(Cl)CC2)cc(N(COC(=O)C(C)(C)C)S(=O)(=O)C(F)(F)F)c(C)c1C [Compound 359] | 0 | 0 | 0 | 60 | 50 | 60 | 0 | 0 | 0 | 30 | 15 | 0 | 0 |
| Cc1cc(C2CC2)c(C2=NOC3CCCC23)cc1N(COC(=O)C(C)(C)C)S(=O)(=O)C(F)(F)F (stereo not drawn) [Compound 355] | 0 | 0 | 10 | 60 | 10 | 40 | 10 | 10 | 20 | 50 | 10 | 0 | 0 |
| CCc1cc(C)c(NS(=O)(=O)C(F)(F)F)cc1C1=NOC2CCCC12 (stereo not drawn) [Compound 305] | 10 | 40 | 20 | 60 | 10 | 50 | 20 | 40 | 50 | 60 | 0 | 10 | 90 |
| Cc1c(NS(=O)(=O)C(F)(F)F)cc(C(=O)N(C)C)c(C)c1Cl [Compound 287] | 0 | 30 | 0 | 0 | 30 | 50 | 0 | 30 | 0 | 10 | 0 | 0 | 0 |
| Cc1cc(C)c(C2=NOC3CCCCCC23)cc1NS(=O)(=O)C(F)(F)F (stereo not drawn) [Compound 292] | 0 | 30 | 0 | 30 | 20 | 80 | 20 | 90 | 0 | 70 | 0 | 0 | 40 |
| CCOC(=O)N(c1cc(C(=O)N2CCC(F)(F)CC2)c(C)cc1C)S(=O)(=O)C(F)(F)F [Compound 351] | 10 | 50 | 30 | 50 | 30 | 50 | 10 | 50 | 0 | 60 | 50 | 0 | 0 |
